Experimental data taken from BindingDB's records for patent US20240228491 (Scinnohub Pharmaceutical, 2024).

Target: S-adenosylmethionine synthase isoform type-2 (Homo sapiens, UniProt P31153)
Experiment: Enzymatic Activity Test
Protocol: The specific steps were as follows: The compounds having the test starling concentration of 1 uM or 10 uM were diluted into 10 concentration points in a 3-fold gradient. 250 nL of the solutions of the compounds to be tested with 10 different concentrations were taken and added into a 384 well plate for later use. 20 ug/mL of MAT2a enzyme solution was prepared with Assay buffer (50 mM Tris, 50 mM KCl, 10 mM MgCl2, 0.05% polyoxyethylene lauryl ether, pH 8.0). 15 uL of the MAT2a enzyme solution at 20 ug/mL was add into the wells of the compounds to be tested at different concentrations; and 15 uL of Assay buffer was added into the negative control well. An incubation was carried out for 15 minutes after shaking for mixing well. A mixed substrate solution (comprising 400 uM ATP and 600 uM L-Methionine) was prepared with Assay buffer. 10 uL of the mixed substrate solution was added to the positive control well, the compound to be tested well, and the negative control well, respectively, and the reaction began, for a reaction time of 150 min. Then, 50 uL of the reaction stop solution (BIOMOL Green Reagent Enzo lifesciences, Cargo No. BML-AK111-1000) was added to stop the reaction, followed by being centrifuged at 1000 rpm for 60 s and then being incubated for 15 min. OD620 was read and data were processed.

S-adenosylmethionine synthase isoform type-2, sequence (P31153 whole entry, canonical isoform): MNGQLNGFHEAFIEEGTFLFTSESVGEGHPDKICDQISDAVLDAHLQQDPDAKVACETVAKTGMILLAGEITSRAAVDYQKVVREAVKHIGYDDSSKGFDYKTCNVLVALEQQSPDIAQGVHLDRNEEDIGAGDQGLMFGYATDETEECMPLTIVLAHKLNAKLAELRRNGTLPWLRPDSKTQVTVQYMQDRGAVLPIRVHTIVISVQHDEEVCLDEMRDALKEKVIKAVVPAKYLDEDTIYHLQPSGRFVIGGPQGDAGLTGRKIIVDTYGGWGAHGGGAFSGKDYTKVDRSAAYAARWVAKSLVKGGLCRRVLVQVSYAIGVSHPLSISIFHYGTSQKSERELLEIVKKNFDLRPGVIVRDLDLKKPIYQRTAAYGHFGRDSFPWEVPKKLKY

Work on `CNc1c(-c2ccsc2)c(=O)n(-c2ccccc2)c2nc(C(F)(F)F)ccc12` [US20240228491, Example 4] yielded an IC50 of 20.2 nM.
